Experimental data taken from patent US11597911B2, “Expansion of populations of T cells by the use of modified serum free media” (Life Technologies Corporation, priority 2017, dated 2023).

Tests used:
Primary human T cells = test: T cell expansion in serum-free medium with glucose, galactose or mixtures; assay type: cell-based; conditions: final sugar 6 g/L; lipid concentrate 1:100; CD3/CD28 beads; counted days 5-12; FIG. 3
From the text: FIG. 3 is a graph depicting that galactose alone is suboptimal for human T cell expansion. Primary human T cells from normal donors were negatively isolated from PBMCs with DYNABEADS® UNTOUCHED™ Human T Cells kit. T cells (seeding density 1×10^6/mL) were activated with DYNABEADS® Human T-Expander CD3/CD28 at a ratio of 3 beads per T cell and cultured in serum-free medium supplemented with GIBCO™ Chemically Defined Lipid Concentrate (1:100) and either d-glucose, d-galactose or mixtures of glucose and galactose as indicated; final concentration of sugar was 6 g/L in all conditions. T cells were fed and counted on days 5, 7, 10 and 12 on a Beckman-Coulter ViCell analyzer. Cell expansion is expressed as cumulative viable T cells over time. Results are representative of at least 3 independent experiments.
Primary human T cells from normal donors were negatively isolated from PBMCs with DYNABEADS® UNTOUCHED™ Human T Cells kit. […] T cells were fed and counted on days 5, 7, 10 and 12 on a Beckman-Coulter ViCell analyzer. Cell expansion is expressed as cumulative viable T cells over time. […]

[1] = system: Naïve and Central Memory CD4+ T cells; test: Expansion and cytokine production of sorted CD4+ T cell subsets in limited glucose:galactose media; assay type: cell-based, human; conditions: in the presence of low glucose; FIG. 21
From the text: Bulk CD4+ T cells were sorted into Tregs, Naïve, Tcm (central memory), and Tem (effector memory) subsets based on the markers CD25, CD45RA, CD62L, and CCR7. Based on FIG. 20, T cells of different subpopulations may be sorted through use of FACS. […] Expanded naïve CD4+ T cells preserve the naïve phenotype when grown in limited glucose, as witnessed through FACS analysis (see FIG. 22 and FIG. 23).
While good expansion of T cells can be achieved in media containing multiple ratios of glucose and galactose, ratios with limiting glucose can have a negative impact in interferon gamma production. There is evidence that interferon-gamma expression is regulated via GAPDH in T-cells (Chang, et al Cell. 2013 June 6; 153(6): 1239-1251) thus excessively limiting glycolysis during T cell expansion can impair IFN-γ production. […] Central memory T cells appear not to be effected by glucose level. […] Primary human CD4+ T cells from normal donors isolated via negative selection were obtained from UPenn Human Immunology Core Facility. Cells were separated by flow cytometric sorting into Naïve (CD45RA+/CD27+/CCR7+), and Central Memory (CD45RA−/CD27+/CCR7+), subsets. […] T cells were fed and counted on days 5, 7, 10 and 12 on a Beckman-Coulter Multisizer 3. […]

## O=C[C@H](O)[C@@H](O)[C@@H](O)[C@H](O)CO [D-galactose]
Primary human T cells
  in vitro T cell expansion (cumulative viable T cells over time): not sufficient to support optimal in vitro T cell expansion
[1]
  expansion of naïve T cells: high rate of expansion
